Columns and labels:
[1] = (§1) The drug is tested on WLS-052 corresponding to human gut metagenome with ENA study accession number: PRJEB37062 and ENA sample accession number: ERS12561747 for biotransformation under anaerobic condition. The drug concentrations were measured over 9 timepoints collected between 0 and 24 hours of incubation by liquid-chromatography-coupled mass spectrometry (LC–MS); conditions: 2 µM
[2] = human gut metagenome, 24 h, 2 µM
[3] = human gut metagenome, 24 h, 2 µM; remark: listed apart in the source
[4] = human gut metagenome, 24 h, 2 µM; remark: listed apart in the source
[5] = human gut metagenome, 24 h, 2 µM; remark: listed apart in the source
[6] = as §1, with “Z-012” for “WLS-052”, “to” for “to human gut”, “ERS12561812” for “ERS12561747”; conditions: 2 µM
[7] = as §1, with “WLS-038” for “WLS-052”, “ERS12561745” for “ERS12561747”; conditions: 2 µM
[8] = as §1, with “Z-008” for “WLS-052”, “to” for “to human gut”, “ERS12561808” for “ERS12561747”; conditions: 2 µM
[9] = as §1, with “Z-010” for “WLS-052”, “to” for “to human gut”, “ERS12561810” for “ERS12561747”; conditions: 2 µM
[10] = as §1, with “WLS-077” for “WLS-052”, “ERS12561750” for “ERS12561747”; conditions: 2 µM
[11] = as §1, with “Z-027” for “WLS-052”, “to” for “to human gut”, “ERS12561826” for “ERS12561747”; conditions: 2 µM
[12] = human gut metagenome, 24 h, 2 µM; remark: listed apart in the source
[13] = as §1, with “Z-030” for “WLS-052”, “mouse” for “human”, “ERS12561829” for “ERS12561747”; conditions: 2 µM
[14] = as §1, with “Z-005” for “WLS-052”, “to” for “to human gut”, “ERS12561805” for “ERS12561747”; conditions: 2 µM
[15] = as §1, with “Z-007” for “WLS-052”, “rat” for “human”, “ERS12561807” for “ERS12561747”; conditions: 2 µM
[16] = as §1, with “Z-017” for “WLS-052”, “mouse” for “human”, “ERS12561816” for “ERS12561747”; conditions: 2 µM
[17] = human gut metagenome, 24 h, 2 µM; remark: listed apart in the source
[18] = as §1, with “WLS-073” for “WLS-052”, “ERS12561749” for “ERS12561747”; conditions: 2 µM
[19] = human gut metagenome, 24 h, 2 µM; remark: listed apart in the source
[20] = as §1, with “WLS-350” for “WLS-052”, “ERS12561789” for “ERS12561747”; conditions: 2 µM
Note: call rule not given here.

| Compound | Bacterial Biotransformation [1] | Bacterial Biotransformation [2] | Bacterial Biotransformation [3] | Bacterial Biotransformation [4] | Bacterial Biotransformation [5] | Bacterial Biotransformation [6] | Bacterial Biotransformation [7] | Bacterial Biotransformation [8] | Bacterial Biotransformation [9] | Bacterial Biotransformation [10] | Bacterial Biotransformation [11] | Bacterial Biotransformation [12] | Bacterial Biotransformation [13] | Bacterial Biotransformation [14] | Bacterial Biotransformation [15] | Bacterial Biotransformation [16] | Bacterial Biotransformation [17] | Bacterial Biotransformation [18] | Bacterial Biotransformation [19] | Bacterial Biotransformation [20] |
| --- | --- | --- | --- | --- | --- | --- | --- | --- | --- | --- | --- | --- | --- | --- | --- | --- | --- | --- | --- | --- |
| CC(C)NCC(O)c1ccc(NS(C)(=O)=O)cc1 (stereo not given) [SOTALOL] | Compound NOT metabolized | Compound NOT metabolized | Compound NOT metabolized | Compound NOT metabolized | Compound NOT metabolized | Compound NOT metabolized | Compound NOT metabolized | Compound NOT metabolized | Compound NOT metabolized | Compound NOT metabolized | Compound NOT metabolized | Compound NOT metabolized | Compound NOT metabolized | Compound NOT metabolized | Compound NOT metabolized | Compound NOT metabolized | Compound NOT metabolized | Compound NOT metabolized | Compound NOT metabolized | Compound NOT metabolized |
| CCN1CCCC1CNC(=O)c1cc(S(N)(=O)=O)ccc1OC (stereo not given) [SULPIRIDE] | Compound NOT metabolized | Compound metabolized | Compound NOT metabolized | Compound metabolized | Compound metabolized | Compound NOT metabolized | Compound NOT metabolized | Compound NOT metabolized | Compound metabolized | Compound metabolized | Compound NOT metabolized | Compound NOT metabolized | Compound NOT metabolized | Compound NOT metabolized | Compound NOT metabolized | Compound NOT metabolized | Compound NOT metabolized | Compound NOT metabolized | Compound NOT metabolized | Compound NOT metabolized |
| CNS(=O)(=O)Cc1ccc2[nH]cc(CCN(C)C)c2c1.O=C(O)CCC(=O)O [SUMATRIPTAN SUCCINATE] | Compound NOT metabolized | Compound metabolized | Compound NOT metabolized | Compound metabolized | Compound metabolized | Compound NOT metabolized | Compound NOT metabolized | Compound NOT metabolized | Compound NOT metabolized | Compound NOT metabolized | Compound NOT metabolized | Compound metabolized | Compound NOT metabolized | Compound NOT metabolized | Compound NOT metabolized | Compound NOT metabolized | Compound metabolized | Compound NOT metabolized | Compound NOT metabolized | Compound NOT metabolized |
| CC(CN(C)C)CN1c2ccccc2CCc2ccccc21.O=C(O)/C=C\C(=O)O (stereo not given) [TRIMIPRAMINE MALEATE] | Compound NOT metabolized | Compound metabolized | Compound NOT metabolized | Compound metabolized | Compound metabolized | Compound metabolized | Compound NOT metabolized | Compound NOT metabolized | Compound NOT metabolized | Compound NOT metabolized | Compound NOT metabolized | Compound metabolized | Compound NOT metabolized | Compound NOT metabolized | Compound NOT metabolized | Compound NOT metabolized | Compound metabolized | Compound NOT metabolized | Compound NOT metabolized | Compound NOT metabolized |
| CC(=O)CC(c1ccccc1)c1c(O)c2ccccc2oc1=O (stereo not given) [WARFARIN] | Compound metabolized | Compound metabolized | Compound metabolized | Compound metabolized | Compound metabolized | Compound metabolized | Compound NOT metabolized | Compound NOT metabolized | Compound metabolized | Compound metabolized | Compound NOT metabolized | Compound metabolized | Compound NOT metabolized | Compound NOT metabolized | Compound NOT metabolized | Compound NOT metabolized | Compound metabolized | Compound NOT metabolized | Compound NOT metabolized | Compound metabolized |

Continued, values first:

| Bacterial Biotransformation [1] | Bacterial Biotransformation [2] | Bacterial Biotransformation [3] | Bacterial Biotransformation [4] | Bacterial Biotransformation [5] | Bacterial Biotransformation [6] | Bacterial Biotransformation [7] | Bacterial Biotransformation [8] | Bacterial Biotransformation [9] | Bacterial Biotransformation [10] | Bacterial Biotransformation [11] | Bacterial Biotransformation [12] | Bacterial Biotransformation [13] | Bacterial Biotransformation [14] | Bacterial Biotransformation [15] | Bacterial Biotransformation [16] | Bacterial Biotransformation [17] | Bacterial Biotransformation [18] | Bacterial Biotransformation [19] | Bacterial Biotransformation [20] | Compound |
| --- | --- | --- | --- | --- | --- | --- | --- | --- | --- | --- | --- | --- | --- | --- | --- | --- | --- | --- | --- | --- |
| Compound NOT metabolized | Compound metabolized | Compound NOT metabolized | Compound NOT metabolized | Compound metabolized | Compound NOT metabolized | Compound NOT metabolized | Compound NOT metabolized | Compound NOT metabolized | Compound metabolized | Compound NOT metabolized | Compound metabolized | Compound NOT metabolized | Compound NOT metabolized | Compound NOT metabolized | Compound NOT metabolized | Compound metabolized | Compound NOT metabolized | Compound NOT metabolized | Compound NOT metabolized | Nc1c2c(nc3ccccc13)CCCC2 [TACRINE] |
| Compound metabolized | Compound metabolized | Compound metabolized | Compound metabolized | Compound metabolized | Compound metabolized | Compound metabolized | Compound NOT metabolized | Compound metabolized | Compound metabolized | Compound NOT metabolized | Compound metabolized | Compound NOT metabolized | Compound metabolized | Compound NOT metabolized | Compound NOT metabolized | Compound metabolized | Compound metabolized | Compound NOT metabolized | Compound NOT metabolized | Cc1ccc(S(=O)(=O)NC(=O)NN2CCCCCC2)cc1 [TOLAZAMIDE] |
| Compound metabolized | Compound metabolized | Compound metabolized | Compound metabolized | Compound metabolized | Compound NOT metabolized | Compound metabolized | Compound NOT metabolized | Compound metabolized | Compound metabolized | Compound NOT metabolized | Compound metabolized | Compound NOT metabolized | Compound metabolized | Compound NOT metabolized | Compound NOT metabolized | Compound metabolized | Compound metabolized | Compound NOT metabolized | Compound NOT metabolized | CCOC(=O)[C@H](CCc1ccccc1)N[C@@H](C)C(=O)N1[C@H](C(=O)O)C[C@H]2CCCC[C@@H]21 [TRANDOLAPRIL] |

Reference: ChEMBL document CHEMBL5724914, “Linking interpersonal differences in gut microbiota composition and drug biotransformation activity” (2024)
